Experimental data from PMC7245553 (Cell chemical biology, 2020).

What was measured:
[1] = system: clinical drug-sensitive and drug-resistant strains of M. tuberculosis; experiment: Whole-cell activity versus clinical M. tuberculosis strains; type: cell-based, Mycobacterium tuberculosis
[2] = system: DG167-resistant M. tuberculosis; type: cell-based, Mycobacterium tuberculosis

Row | SMILES | whole-cell activity versus clinical strains [1] | cross-resistance with DG167 [2]
1 | CCCCS(=O)(=O)Nc1ccc2[nH]c(C#N)c(C)c2c1 [Compound 9, N-(2-cyano-3-methyl-1H-indol-5-yl)butane-1-sulfonamide] | maintained their in vitro potency | cross-resistant
2 | CCCCCS(=O)(=O)Nc1ccc2[nH]c(C#N)c(C)c2c1 [Compound 10, N-(2-cyano-3-methyl-1H-indol-5-yl)pentane-1-sulfonamide] | maintained their in vitro potency | cross-resistant
3 | Cc1n[nH]c2ccc(NS(=O)(=O)CCCCF)cc12 [JSF-3285, 4-fluoro-N-(3-methyl-1H-indazol-5-yl)butane-1-sulfonamide] | comparable with its efficacy versus the H37Rv strain | cross-resistant with DG167
